According to patent publication US20110301159A1, “KINASE INHIBITOR COMPOUNDS” (UNIVERSITY OF SOUTH FLORIDA, priority 2008, published 2011):
Values after ≈ are worked out from the molar mass of the structure shown. Like-named read-outs stand apart in the source and are kept apart here.

Assays:
[1] = tested on: Marrow derived mononuclear cells (polycythemia vera, Jak2-V617F positive); test: Ex vivo colony formation of marrow cells from a polycythemia vera patient; format: cell-based, human; conditions: 25 or 2.5 μM
Method: Methods: Marrow derived mononuclear cells were obtained from a person, who has been confirmed to have polycythemia vera and also identified as Jak2-V617F positive. Marrow derived mononuclear cells were washed three times in IMDM media and plated at 4×10^5 cells/mL in 1 mL methylcellulose media (0.9% methylcellulose, 30% heat inactivated FCS, 0.1 mM 2-mercaptoethanol, 0.9% BSA, 0.05% NaHCO3, 2 mM/L glutamine, penicillin, streptomycin, 50 ng/mL SCF, and 20 ng/mL IL-3 (Stem Cell Technologies, Vancouver, BC). Vehicle control (DMSO at 0.25%) or inhibitors were added at the indicated concentrations (25 or 2.5 μM). EPO (1 U/mL) was also added as indicated. The cultures were then incubated at 37° C. and 5% CO2 until assessment of colony formation at day 14. Results were expressed as the average number of colonies from duplicate cultures per 4×10^5 cells.

[2] = Aqueous solubility (MultiScreen Solubility Filter Plate); format: physicochemical; conditions: MultiScreen Solubility Filter Plate (Millipore), kinetic from dmso stock
Method: (§1) Methods: Jak2-V617F expressing Human Erythroleukemia (HEL) cells were plated in 96 well plates at ˜40,000 cells per well and incubated with either vehicle control (0.25% DMSO) or with 25 uM of Jak2 kinase inhibitors. Viable cell numbers were then determined at the times (0, 4, 24, 48 and 72 hours) via trypan blue exclusion and a hemocytometer. Aqueous solubility was determined using a MultiScreen® Solubility Filter Plate (Millipore) (see Quantitative method to determine drug aqueous solubility: optimization and correlation to standard methods; http://www.millipore.com/techpublications/tech1/an1730en00) and a Spectrophotometer.

[3] = tested on: Jak2-V617F expressing HEL cells; test: Apoptosis assay (Annexin V/Propidium Iodide FACS); format: cell-based, Human; conditions: 25 μM, 48 hours
Method: Jak2-V617F expressing HEL cells were exposed to either vehicle control (DMSO), or 25 μM of an inhibitor for 48 hours. The percentage of apoptotic cells was then determined via Annexin V/Propidim Iodide FACS analysis.

[4] = tested on: Jak2-V617F expressing Human Erythroleukemia (HEL) cells; test: Inhibition of Jak2-V617F dependent HEL cell growth (trypan blue viable cell count); format: cell-based; conditions: for inhibition at 25 µM: Homo sapiens, HEL; for inhibition at 25 µM / % Growth Inhibition: 25 uM inhibitor
Method: as §1

[5] = tested on: Jak2-V617F expressing Human Erythroleukemia (HEL) cells; test: as above; format: cell-based; conditions: for IC50: read-out: IC50 for inhibition on Jak2-V617F dependent HEL cells proliferation
recombinant p60c-src = target: T1, recombinant p60c-src (Homo sapiens, UniProt P12931); test: c-Src assay (in vitro kinase reaction, anti-Src pY418 Western blot); format: biochemical; conditions: 25 uM, 20 minutes, room temperature
T1 construct: purchased Upstate Biotechnology
Method: Approximately 4 μL (12 units) of catalytically active recombinant p60c-src (Upstate Biotechnology) was incubated in 46 μL of in vitro kinase reaction buffer (50 mM HEPES, pH 7.6, 5 mM MnCl2, 5 mM MgCl2, 100 mM NaCl, 0.5 mM DTT), either in the presence of DMSO or 25 uM Z3. The reactions were incubated for 20 minutes at room temperature and then
terminated by addition of SDS-containing buffer. The samples were Western blotted with an anti-Src (pY418) polyclonal antibody (Biosource).

HEL cells = test: Jak2-V617F-induced hematopoietic disease in NOD-SCID mouse model (HEL cell injection); format: in vivo, NOD-SCID mice
Method: Methods: In the experiment, NOD-SCID mice, N=36. were randomized into 6 groups (n=6). Baseline peripheral blood samples and weights were taken at Day 0. At day 7, 2×10^6 HEL cells were injected into each mouse in Groups 2, 3, 4 and 5. […] Then all the mice were euthanized.
In the experiment, the following measurable endpoints were assessed. For peripheral blood, total white blood cell (WBC) counts, the percentage of blast cells, the percentage of nucleated red blood cells (RBC), and Hematocrits were measured. For bone marrow, quantitative cellularity, and Myeloid cell to erythroid cell (M:E) ratio were assessed. Further, toxicity in spleen, brain, kidney, liver, and lung using histological analysis is assessed.
Peripheral blood samples were obtained via weekly submandibular bleeds using a 21 gauge needle. Blood samples were smeared onto glass slides, stained, and dried. Peripheral blast cells on each slide were then tabulated using a pathology light microscope. The average percent of peripheral blast cells for each treatment group was then graphed as a function of time.
At necropsy, femurs from each animal were formalin fixed, de-calcified and then parrafin embedded. Parrafin sections were then made, stained with hematoxylin and eosin and dried. The number of myeloid and erythroid cells were then tabulated by a veterinary pathologist who was blind to the treatment groups. The ratio of myeloid to erythroid cells was then graphed as a function of treatment group. Further, the average number of mature and immature erythroid cells was then graphed as a function of treatment group.
Additionally, at necropsy, animals were weighed one final time and spleens were then removed from each mouse. The wet weight of each spleen was recorded and the spleen weight to body weight ratio was graphed as a function of treatment group.

[6] = tested on: Marrow derived mononuclear cells (Essential Thrombocythemia, Jak2-V617F positive); test: Ex vivo Jak2-V617F dependent megakaryocyte colony formation (essential thrombocythemia patient); format: cell-based, human; conditions: 25 uM, day 14
From the text: Marrow derived mononuclear cells were taken from a person, who was confirmed Essential Thrombocythemia and being Jak2-V617F positive.

CCN(CC)Cc1cc(/C=C/c2ccc(O)c(CN(CC)CC)c2)ccc1O [NB-1, (Z)- and (E)-4,4′-(Ethene-1,2-diyl)bis(2-((diethylamino)methyl)phenol)]
pathologic cell growth (colony formation at day 14) [1]: reduce pathologic cell growth | solubility [2]: 533 µM (≈ 204 µg/mL) | % of Cells in Apoptosis [3]: 66% | suppressing HEL cell growth compared with G6 [3]: behaves similarly to G6 | inhibition at 25 µM [4]: 98% | IC50 ([5]; Homo sapiens, HEL): ~4 µM

CCN(CC)Cc1ccc(/C(C)=C(/C)c2ccc(CN(CC)CC)c(O)c2)cc1O [NB-3, (Z)- and (E)-5,5′-(But-2-ene-2,3-diyl)bis(2-((diethylamino)methyl)phenol)]
solubility [2]: 460 µM (≈ 189 µg/mL) | inhibition at 25 µM [4]: 101%

C/C(=C(/C)c1ccc(CN(C)C)c(O)c1)c1ccc(CN(C)C)c(O)c1 [NB-4, (Z)- and (E)-5,5′-(But-2-ene-2,3-diyl)bis(2-((dimethylamino)methyl)phenol)]
solubility [2]: 478 µM (≈ 169 µg/mL) | inhibition at 25 µM [4]: 101%

CCN(CC)Cc1ccc(/C=C\c2ccc(CN(CC)CC)c(O)c2)cc1O [NB-5, (Z)- and (E)-5,5′-(Ethene-1,2-diyl)bis(2-((diethylamino)methyl)phenol)]
solubility [2]: 509 µM (≈ 195 µg/mL) | inhibition at 25 µM [4]: 101%

CN(C)Cc1ccc(/C=C\c2ccc(CN(C)C)c(O)c2)cc1O [NB-6, (Z)- and (E)-5,5′-(Ethene-1,2-diyl)bis(2-((dimethylamino)methyl)phenol)]
solubility [2]: 538 µM (≈ 176 µg/mL) | inhibition at 25 µM [4]: ~19%

Oc1cc(/C=C\c2ccc(CN3CCCCC3)c(O)c2)ccc1CN1CCCCC1 [NB-7, (Z)- and (E)-5,5′-(Ethene-1,2-diyl)bis(2-(piperidin-1-ylmethyl)phenol)]
solubility [2]: 495 µM (≈ 201 µg/mL) | inhibition at 25 µM [4]: 99%

CCN(CC)Cc1ccc(/C(C)=C(\C)c2ccc(CN(CC)CC)c(O)c2)cc1O [NB-8, (Z)- and (E)-5,5′-(But-2-ene-2,3-diyl)bis(2-((diethylamino)methyl)phenol).2HCl]
solubility [2]: 272 µM | inhibition at 25 µM [4]: 100%

C/C(=C(\C)c1ccc(CN(C)C)c(O)c1)c1ccc(CN(C)C)c(O)c1 [NB-9, (Z)- and (E)-5,5′-(But-2-ene-2,3-diyl)bis(2-((dimethylamino)methyl)phenol).2HCl]
solubility [2]: 384 µM | inhibition at 25 µM [4]: 101%

CCN(CC)Cc1ccc(/C=C/c2ccc(CN(CC)CC)c(O)c2)cc1O [NB-10, (Z)- and (E)-5,5′-(Ethene-1,2-diyl)bis(2-((diethylamino)methyl)phenol).2HCl]
solubility [2]: 474 µM | inhibition at 25 µM [4]: 100%

Oc1cc(/C=C/c2ccc(CN3CCCCC3)c(O)c2)ccc1CN1CCCCC1 [NB-12, (Z)- and (E)-5,5′-(Ethene-1,2-diyl)bis(2-(piperidin-1-ylmethyl)phenol)]
solubility [2]: 484 µM (≈ 197 µg/mL) | inhibition at 25 µM [4]: 100%

(Z) and (E)-4,4′-(Hex-3-ene-3,4-diyl)bis(2-((diethylamino)methyl)phenol) [Compound G6]
c-Src tyrosine kinase activity (recombinant p60c-src): no effect on c-Src tyrosine kinase activity | pathologic cell growth (colony formation at day 14) [1]: reduce pathologic cell growth | Peripheral blood counts of granulocytes, neutrophils, and eosinophils (HEL cells; 10 mg/kg/day): all normal | bone marrow necrosis (HEL cells; 10 mg/kg/day): 2 of 6 | histology of brain, kidney, liver, and lung (HEL cells; 10 mg/kg/day): histologically normal | splenic necrosis (HEL cells; 10 mg/kg/day): 3 of 6 | percentage of blast cells in peripheral blood (HEL cells; 0.1-10 mg/kg/day): reduces the percentage of blast cells in peripheral blood in a dose-dependent manner | numbers of mature and immature Erythroid cells in bone marrow (HEL cells; mouse, in vivo): reduced numbers of mature Erythroid cells, not immature Erythroid cells | % of Cells in Apoptosis [3]: 79% | time required to inhibit Jak2-V617F dependent cell proliferation by 50% [4]: ~11 h | % Growth Inhibition [4]: 100% | Jak2-V617F dependent HEL cell proliferation, dose and time dependence ([5]; HEL cells): Inhibits Jak2-V617F Dependent HEL Cell Proliferation in both a dose and time dependent manner | IC50 ([5]; HEL cells): ~4 µM | Jak2-V617F dependent megakaryocyte colony formation [6]: blocks Jak2-V617F dependent megakaryocyte colony formation

(Z)- and (E)-4,4′-(But-2-ene-2,3-diyl)bis(2-((diethylamino)methyl)phenol) [NB-2]
pathologic cell growth (colony formation at day 14) [1]: reduce pathologic cell growth | % of Cells in Apoptosis [3]: 28% | suppressing HEL cell growth compared with G6 [3]: not as effective as G6 | % Growth Inhibition ([4]; 25 µM): 53% | IC50 ([5]; HEL cells): ~9 µM
